In article PMC8571031, “Stimulation of Ca^2+‐ATPase Transport Activity by a Small‐Molecule Drug” (Chemmedchem, 2021):

Biological target: T1, sarco(endo)plasmic reticulum Ca2+-ATPase (SERCA1a isoform) (Oryctolagus cuniculus, UniProt P04191)
T1 construct: gene ATP2A1; purified SERCA1a from rabbit skeletal muscle SR in reconstituted proteoliposomes; native SR vesicles for the EC50
Assay: SSM electrical measurement of ATP-induced charge translocation (activation); EC50 on native SR vesicles, direct action confirmed with purified SERCA1a proteoliposomes
Type: biochemical

T1 sequence (P04191 1-993): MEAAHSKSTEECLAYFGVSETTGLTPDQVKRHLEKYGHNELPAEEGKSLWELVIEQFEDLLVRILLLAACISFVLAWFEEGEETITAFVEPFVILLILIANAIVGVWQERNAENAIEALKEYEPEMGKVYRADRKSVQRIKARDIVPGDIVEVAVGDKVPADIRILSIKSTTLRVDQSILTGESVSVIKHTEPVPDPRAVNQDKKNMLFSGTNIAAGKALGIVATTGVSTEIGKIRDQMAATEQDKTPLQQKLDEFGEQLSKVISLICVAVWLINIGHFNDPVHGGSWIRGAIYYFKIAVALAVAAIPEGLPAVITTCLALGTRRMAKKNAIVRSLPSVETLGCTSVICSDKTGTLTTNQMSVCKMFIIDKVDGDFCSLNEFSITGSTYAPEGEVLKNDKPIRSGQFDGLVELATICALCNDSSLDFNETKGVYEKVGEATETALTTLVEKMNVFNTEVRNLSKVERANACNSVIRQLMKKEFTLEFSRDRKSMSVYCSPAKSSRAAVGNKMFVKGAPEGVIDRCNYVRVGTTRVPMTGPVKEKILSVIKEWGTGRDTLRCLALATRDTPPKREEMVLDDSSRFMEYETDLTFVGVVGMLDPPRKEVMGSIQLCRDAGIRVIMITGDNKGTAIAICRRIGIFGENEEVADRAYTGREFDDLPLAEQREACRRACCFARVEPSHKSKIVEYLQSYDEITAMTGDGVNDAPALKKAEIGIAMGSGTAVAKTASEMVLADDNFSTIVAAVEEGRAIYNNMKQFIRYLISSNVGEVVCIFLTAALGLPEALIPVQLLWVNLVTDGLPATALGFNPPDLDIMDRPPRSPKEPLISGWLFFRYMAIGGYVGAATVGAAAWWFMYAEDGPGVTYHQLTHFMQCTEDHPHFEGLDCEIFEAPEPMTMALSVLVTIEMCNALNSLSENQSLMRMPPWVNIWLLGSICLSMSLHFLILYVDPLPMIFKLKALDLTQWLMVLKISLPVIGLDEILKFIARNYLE

For Cc1ccc2cccc(NC(=O)c3ccc(OC(C)C)cc3)c2n1 [CDN1163], the EC50 was 6 ± 0.3 µM.
